In patent US20240092831A1, “Proteasome Inhibitors” (Mayo Foundation for Medical Education and Research, priority 2019, published 2024):
Read-outs that look alike come from different tables or passages of the source. Values belong to the compound of their own block, whether it stands above or below them. Non-standard residues stand in square brackets, D forms with d. Residues, ends and D or L forms follow the SMILES beside them. ξ: configuration not given here. *: point of attachment. Hydrocinnamoyl = O=C(CCc1ccccc1)*; ξF = NC(Cc1ccccc1)C(=O)O; Cbz = O=C(OCc1ccccc1)*

Legend:
[1] = test system: BCWM.1; assay: MTS assay, BCWM.1; assay type: cell-based; conditions: BCWM1
[2] = test system: MWCL.1/BR; assay: MTS assay, MWCL.1/BR; assay type: cell-based; conditions: bortezomib-resistant subclone
[3] = test system: bortezomib resistant cells; assay: Cell viability (MTS/CellTiter Glo), bortezomib resistant multiple myeloma cells; assay type: cell-based
Description: (§1) Methods: CD138+ cells from multiple myeloma patients, bortezomib-sensitive multiple myeloma cell lines (OPM2, KMS11 and U266) and their isogenic bortezomib resistant subclones were used in experiments. Fluorogenic peptide substrates were used to measure β-subunit-specific enzymatic activity. Gene disruption was conducted using 2 different shRNA hairpins for PSMB5 (β5) and PSMB9 ([…]). […] HT12v4 gene expression array and NanoString mRNA quantification were used for gene expression profiling (GEP), followed by qPCR for confirmation. Novel dual β5-β1i proteasome inhibitors were synthesized and tested in vitro. Apoptosis was determined by annexin-V/[…] staining and MTS/CellTiter Glo assay used to determine cell viability.

[4] = target: T1, β1 (Homo sapiens, UniProt P28065); assay: Proteasome β1 enzyme activity in WM cell lines (fluorogenic substrate); assay type: cell-based; conditions: comparator
T1 construct: In vitro proteasome enzyme activity at the β5 and β1 subunits was examined in all WM cell lines +/−Compound 1; endogenous in cells; host or cells: BWCM.1 (BCWM.1), MWCL-1, RPCI-WM1 and isogenic bortezomib/PI-resistant subclones
Description: (§2) Methodology: BWCM.1, MWCL-1 and RPCI-WM1 and isogenic PI-resistant subclones were used in experiments. WM cell viability determined by 72 hour CellTiter Glo assay. Proteasome enzyme activity was estimated by fluorogenic substrates specific for β5 and β1. Protein expression was determined by western blotting. Apoptosis was assessed by annexin-V/PI staining.

[5] = test system: BCWM.1/BR; assay: MTS assay, BCWM.1/BR; assay type: cell-based; conditions: BCWM1, bortezomib-resistant subclone
[6] = test system: RPCI.WM1/BR; assay: MTS assay, RPCI.WM1/BR; assay type: cell-based; conditions: bortezomib-resistant subclone
[7] = test system: MWCL.1; assay: MTS assay, MWCL.1; assay type: cell-based
[8] = test system: β5; assay: Proteasome β5 enzyme activity in WM cell lines (fluorogenic substrate); assay type: cell-based; conditions: comparator
Description: as §2
Results: Chemical compounds capable of inhibiting enzymatic activity of both β5 and β1 were prepared. […] (FIGS. 2B, 2C). […] In vitro proteasome enzyme activity at the β5 and β1 subunits was examined in all WM cell lines +/−Compound 1 (with bortezomib serving as a comparator).

[9] = test system: RPCI.WM1; assay: MTS assay, RPCI.WM1; assay type: cell-based
[10] = test system: bortezomib sensitive cells; assay: Cell viability (MTS/CellTiter Glo), bortezomib sensitive multiple myeloma cells; assay type: cell-based
Description: as §1

[11] = target: T2, B1i (Homo sapiens, UniProt P28065); assay: In vitro enzymatic potency of dual-β5/β1i inhibitors (Table 2); assay type: biochemical
T2 construct: endogenous in cells; host or cells: OPM2 and OPM2/BR multiple myeloma cell lines
Description: as §1
The results were shown for multiple myeloma cell lines (OPM2, OPM2/BR).

Compound: CC(C)C[C@H](NC(=O)[C@H](Cc1ccccc1)NC(=O)c1cnccn1)B(O)O [Bortezomib, bortezomib]
- IC50 [1]: 8.6 nM
- IC50 [2]: 16.7 nM
- IC50 ([3]; bortezomib resistant cells, before PSMB9 downregulation, read-out: IC50 (shift from)): 235 nM
- IC50 ([3]; bortezomib resistant cells, read-out: Bortezomib IC50): 284 nM
- IC50 ([3]; bortezomib resistant-PSMB9 shRNA transfected cells, read-out: IC50 (shift to)): 108 nM
- effect on β1 activity [4]: did not decrease β1 activity
- IC50 [5]: 17.6 nM
- IC50 [6]: 114 nM
- IC50 [7]: 10.2 nM
- effect on β5 enzymatic function [8]: only β5 enzymatic function
- IC50 [9]: 3 nM
- IC50 [10]: 4 nM

Compound: CC(C)[C@H](NC(=O)CCc1ccccc1)C(=O)NC(C=O)Cc1ccccc1 (stereo partly shown) [Compound 1-2] (Hydrocinnamoyl-Val-[ξF]-aldehyde)
- IC50 ([11]; first column of Table 2): 1000 nM
- IC50 ([11]; second column of Table 2): 5000 nM

Compound: CC(C)C[C@H](NC(=O)OCc1ccccc1)C(=O)NC(C=O)Cc1ccccc1 (stereo partly drawn) [Compound 6-2] (Cbz-Leu-[ξF]-aldehyde)
- IC50 ([11]; first column of Table 2): 1000 nM
- IC50 ([11]; second column of Table 2): 5000 nM

Compound: O=CC(Cc1ccccc1)NC(=O)[C@H](Cc1ccccc1)NC(=O)OCc1ccccc1 (stereo partly drawn) [Compound 7-2] (Cbz-Phe-[ξF]-aldehyde)
- IC50 ([11]; first column of Table 2): 5000 nM
- IC50 ([11]; second column of Table 2): 5000 nM

Now from value to compound:

- IC50 ([11]; first column of Table 2): 5000 nM
- IC50 ([11]; second column of Table 2): 5000 nM
Compound: CC(C)[C@H](NC(=O)c1ccncc1)C(=O)NC(C=O)Cc1ccccc1 (stereo partly shown) [Compound 12-2]

- IC50 ([11]; first column of Table 2): > 10000 nM
- IC50 ([11]; second column of Table 2): 5000 nM
Compound: CCOC(=O)/C(C#N)=C/C(Cc1ccccc1)NC(=O)[C@@H](NC(=O)OCc1ccccc1)C(C)C (stereo partly shown) [Compound 15-2]
